Experiment [1] has as its system MFE280 endometrial tumor model. Description: MFE280 xenograft in vivo efficacy. The arrangement: species or system nu/nu mice. The conditions noted are these: tumor weight reduction. On the procedure: (§1) For all other tumors as listed in table 2 & 3 the experiments were carried out in an analogous way as described above.
Experiment [2] relates to OVXF1023 ovarian carcinoma. Description: OVXF1023 patient-derived xenograft study. Format: in vivo, nu/nu mice. From the text:
Female, 5-7 weeks old immunocompromised nu/nu mice (18-24 g) from Janvier (France) were used for the patient-derived OVX1023 ovarian carcinoma study.
The animals were housed in individually ventilated cages ([…] Sealsafe™-IVC-System, […], Hohenpeissenberg, Germany) and were kept under a 14L:10D artificial light cycle. The animals were monitored twice daily. Depending on group size, either type III cages or type II long cages were used. Dust-free bedding consisting of aspen wood chips with approximate dimensions of 5×5×1 mm (ABEDD®—LAB & VET Service GmbH, Vienna, Austria, Product Code: LTE E-001) were used. Additional nesting material was routinely added. […]
All experiments were approved by the local authorities, and were conducted according to all applicable international, national and local laws and guidelines. […] Animals were routinely monitored twice daily on working days and daily on weekends and public holidays. […]
Tumor size was measured twice weekly in two dimensions using a caliper, and the volume was expressed in mm^3 using the formula: V=0.5a×b^2 where a and b are the long and short diameters of the tumor, respectively. […] T-C was calculated with T as the time (in days) required for the mean tumor size of the treatment group to reach a predetermined size (e.g. 1000 mm^3), and C was the time (in days) for the mean tumor size of the control group to reach the same size. […]
On the technique in general: In xenograft studies the graft and the host belong to different species.

A further experiment relates to LU1901 lung tumor model. In words: LU1901 xenograft in vivo efficacy. The arrangement: species or system nu/nu mice. Particulars: tumor weight reduction. Here is the method: as §1
The subject of a further experiment is H1703 lung tumor model. In words: H1703 xenograft in vivo efficacy. Set-up: species or system nu/nu mice. The conditions noted are these: tumor weight reduction. On the procedure: as §1
For the next experiment, the system named is HepG2 liver tumor model. Description: HepG2 xenograft in vivo efficacy. The arrangement: species or system nu/nu mice. The conditions noted are these: tumor weight reduction. Here is the method: as §1
In experiment [3] the test system is LXFA1584 lung tumor model. Description: LXFA1584 xenograft in vivo efficacy. Set-up: species or system nu/nu mice. The conditions noted are these: tumor weight reduction. Here is the method: as §1
Another experiment has as its system OMP2 myeloma tumor model. In words: OMP2 xenograft in vivo efficacy. The conditions noted are these: tumor weight reduction. Set-up: species or system nu/nu mice. Here is the method: as §1
Experiment [4] relates to ES204 esophagus squamous cell carcinoma. Description: ES204 patient-derived xenograft study. Format: in vivo, nu/nu mice. Here is the method:
Female, 6-8 weeks old immunocompromised nu/nu mice (18-24 g) from Vital River (China) were used for the patient-derived ES204 esophagus squamous cell carcinoma study.
Experiment was initiated after a minimal acclimatization period of 6 days. Mice were kept in a 12 hours light/dark cycle, food and water was available ad libitum and housing temperature was 20-26° C. All the procedures related to animal handling, care, and the treatment in this study were performed according to the guidelines approved by the Institutional Animal Care and Use Committee (IACUC) of CrownBio following the guidance of the Association for Assessment and Accreditation of Laboratory Animal Care (AAALAC). […]
Tumor fragments from stock mice inoculated with selected primary human esophagus cancer tissues (ES204) were harvested and used for inoculation onto female nu/nu nude mice. […] Tumors were sampled when mice in the control group reached sacrificing criteria, and final tumor weights were measured on day 23 post treatment start.
Tumor size was measured twice weekly in two dimensions using a caliper, and the volume was expressed in mm^3 using the formula: V=0.5a×b^2 where a and b are the long and short diameters of the tumor, respectively. […]
Descriptive statistics for all groups were performed on final tumor areas and tumor weights at day of the necropsy. Statistical analysis was assessed using the SigmaStat software. […]

Experiment [5] concerns KYSE-140 esophageal tumor model. Description: KYSE-140 xenograft in vivo efficacy. Set-up: species or system nu/nu mice. The conditions noted are these: KYSE-140 esophageal model; tumor weight reduction. Here is the method:
as §1

The values that follow come from US20180333418A1, “USE OF PAN FGFR INHIBITORS AND METHOD OF IDENTIFYING PATIENTS WITH CANCER ELIGIBLE FOR TREATMENT WITH A PAN FGFR INHIBITOR” (BAYER PHARMA AKTIENGESELLSCHAFT, priority 2014, published 2018).

Take `COCc1c(-c2cc3cc(C)cc(OC)c3s2)c2c(N)ncnn2c1CN1CCNC(=O)C1` [compound of formula (I)]: the in vivo efficacy entry in experiment [1] is reported as “yes (All models in which the tumor weight was reduced upon treatment with compounds of formula (I) by at least 50% were considered to be efficacious in vivo.)”; in [2] (OVXF1023 ovarian model, tumor weight reduction), “yes (All models in which the tumor weight was reduced upon treatment with compounds of formula (I) by at least 50% were considered to be efficacious in vivo.)”; with LU1901 lung tumor model it was “no (All models in which the tumor weight was reduced upon treatment with compounds of formula (I) by at least 50% were considered to be efficacious in vivo.)”; in the experiment with H1703 lung tumor model, “no (All models in which the tumor weight was reduced upon treatment with compounds of formula (I) by at least 50% were considered to be efficacious in vivo.)”; in the experiment on HepG2 liver tumor model, “no (All models in which the tumor weight was reduced upon treatment with compounds of formula (I) by at least 50% were considered to be efficacious in vivo.)”; in [3] it was “no (All models in which the tumor weight was reduced upon treatment with compounds of formula (I) by at least 50% were considered to be efficacious in vivo.)”. In addition, the in vivo efficacy entry in the experiment on OMP2 myeloma tumor model was “no (All models in which the tumor weight was reduced upon treatment with compounds of formula (I) by at least 50% were considered to be efficacious in vivo.)”; in experiment [4] (ES204 esophageal model, tumor weight reduction) it was “yes (All models in which the tumor weight was reduced upon treatment with compounds of formula (I) by at least 50% were considered to be efficacious in vivo.)”; in experiment [5] it was “no (All models in which the tumor weight was reduced upon treatment with compounds of formula (I) by at least 50% were considered to be efficacious in vivo.)”. Besides, the “T/C at day 38 post treatment start” value in [2] (OVXF1023, 35 mg/kg 2QD 5 days on- 2 days off po, treated mean/vehicle mean tumor volume) worked out at 0.2. In experiment [4] (ES204, 50 mg/kg 2QD po, treated mean/vehicle mean tumor volume), the “T/C at day 23 post treatment start” value was 0.1.
